This is an account of results in PubChem BioAssay AID328 (DTP/NCI, 2004).

“And” between values parts separate entries of the source, which are not always exact repeats. Equal values may be shown once. Toxic doses and inconclusive results are not listed.

The experiment has as its system BDF1 mice, P388 leukemia ip, median survival T/C. The experiment in a line: NCI In Vivo Anticancer Drug Screen. Data for tumor model P388 Leukemia (intraperitoneal) in B6D2F1 (BDF1) mice. The conditions noted are these: endpoint: median survival time, higher = longer survival. The procedure, abridged: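 In tumour-bearing mice, survival after compound treatment is set against the vehicle group and given as a quotient.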

Where [1] appears, read: dose: 50.0 mg/kg/injection, schedule: Q01DX009 (ip), vehicle: saline with Tween-80.
Where [2] appears, read: dose: 100.0 mg/kg/injection, schedule: Q01DX009 (ip), vehicle: saline with Tween-80.
Setting [3] is: dose: 200.0 mg/kg/injection, schedule: Q01DX009 (ip), vehicle: saline with Tween-80.
Setting [4] is: dose: 25.0 mg/kg/injection, schedule: Q01DX009 (ip), vehicle: saline with Tween-80.
The mark [5] stands for this setting: dose: 50.0 mg/kg/injection, schedule: Q01DX005 (ip), vehicle: saline with Tween-80.
[6] abbreviates: dose: 100.0 mg/kg/injection, schedule: Q01DX005 (ip), vehicle: saline with Tween-80.
The mark [7] stands for this setting: dose: 200.0 mg/kg/injection, schedule: Q01DX005 (ip), vehicle: saline with Tween-80.
Where [8] appears, read: dose: 100.0 mg/kg/injection, schedule: Q04DX003 (ip), vehicle: saline with Tween-80.
Where [9] appears, read: dose: 200.0 mg/kg/injection, schedule: Q04DX003 (ip), vehicle: saline with Tween-80.

Consider `CCc1ccc2c(c1)N(CCCN(CCCl)CCCl)c1ccccc1S2`, for which the T/C (dose: 1.56 mg/kg/injection, schedule: Q04DX003 (ip), vehicle: saline with Tween-80) is 102 % of control and 104 % of control; the T/C (dose: 3.12 mg/kg/injection, schedule: Q04DX003 (ip), vehicle: saline with Tween-80) was 93 % of control and 104 % of control; the T/C (dose: 6.25 mg/kg/injection, schedule: Q04DX003 (ip), vehicle: saline with Tween-80) was 118 % of control; the T/C (dose: 12.5 mg/kg/injection, schedule: Q04DX003 (ip), vehicle: saline with Tween-80) is 163 % of control.

As for `CCCCCSC(=S)N(C)NC(=O)c1ccccn1`, the T/C is 103 % of control under setting [1], 101 % of control under setting [2] and 100 % of control under setting [3].

Turning to `CN(C)C`, the T/C was 100 % of control (dose: 50.0 mg/kg/injection, schedule: Q04DX003 (ip), vehicle: saline); 100 % of control (dose: 100.0 mg/kg/injection, schedule: Q04DX003 (ip), vehicle: saline); 109 % of control (dose: 200.0 mg/kg/injection, schedule: Q04DX003 (ip), vehicle: saline).

On to `CN(C)CSCN(C)C`, for which the T/C is 100 % of control under setting [4], 111 % of control under setting [1] and 102 % of control under setting [2].

With `C=C1C(=O)OC2C1CC/C(C)=C/CCC1(C)OC21` (stereo not drawn), the T/C (dose: 70.0 mg/kg/injection, schedule: Q01DX009 (ip), vehicle: Klucel (hydroxypropylcellulose) (HPC)) was 116 % of control.

With `CC(=O)NC1C([Se][As](C)C)OC(COC(C)=O)C(OC(C)=O)C1OC(C)=O` (stereo not drawn), the T/C runs as follows: (dose: 6.25 mg/kg/injection, schedule: Q01DX009 (ip), vehicle: saline with Tween-80) 116 % of control; under setting [4], 115 % of control.

As for `NC(N)=Nc1ccc(C(=O)Oc2ccc([N+](=O)[O-])cc2CN2CCCCC2)cc1`, the T/C runs as follows: (dose: 0.78 mg/kg/injection, schedule: Q01DX009 (ip), vehicle: water) 101 % of control; (dose: 0.78 mg/kg/injection, schedule: Q04DX003 (ip), vehicle: water) 100 % of control; (dose: 1.56 mg/kg/injection, schedule: Q01DX009 (ip), vehicle: water) 93 % of control; (dose: 1.56 mg/kg/injection, schedule: Q04DX003 (ip), vehicle: water) 105 % of control; (dose: 3.12 mg/kg/injection, schedule: Q01DX009 (ip), vehicle: water) 100 % of control; (dose: 3.12 mg/kg/injection, schedule: Q04DX003 (ip), vehicle: water) 113 % of control. For the same molecule, the T/C (dose: 6.25 mg/kg/injection, schedule: Q01DX009 (ip), vehicle: water) is 104 % of control; the T/C (dose: 6.25 mg/kg/injection, schedule: Q04DX003 (ip), vehicle: water) is 104 % of control; the T/C (dose: 12.5 mg/kg/injection, schedule: Q04DX003 (ip), vehicle: water) is 95 % of control.

In the case of `O=[N+]([O-])c1ccc(/C=C\S(=O)(=O)OCCCl)cc1`, the T/C is 115 % of control (dose: 3.12 mg/kg/injection, schedule: Q01DX005 (ip), vehicle: Klucel (hydroxypropylcellulose) (HPC)); 99 % of control (dose: 6.25 mg/kg/injection, schedule: Q01DX005 (ip), vehicle: Klucel (hydroxypropylcellulose) (HPC)); 114 % of control (dose: 12.5 mg/kg/injection, schedule: Q01DX005 (ip), vehicle: Klucel (hydroxypropylcellulose) (HPC)).

`Nc1nc2c(ncn2C2CC(O)C(CO)O2)c(=O)n1N` (stereo not drawn): the T/C is, setting by setting: (dose: 12.5 mg/kg/injection, schedule: Q01DX009 (ip), vehicle: saline with Tween-80) 97 % of control; under setting [4], 111 % of control; under setting [1], 108 % of control; under setting [2], 101 % of control.

On to `O=C(O)c1cc2ccccc2o1`, for which the T/C runs as follows: under setting [4], 100 % of control; under setting [1], 104 % of control; under setting [2], 109 % of control.

On to `O=C(O)CCC(=O)c1cccc2ccccc12`, for which the T/C is 100 % of control (dose: 50.0 mg/kg/injection, schedule: Q01DX001 (ip), vehicle: other); 104 % of control (dose: 50.0 mg/kg/injection, schedule: Q04DX003 (ip), vehicle: Klucel (hydroxypropylcellulose) (HPC)); 90 % of control (dose: 100.0 mg/kg/injection, schedule: Q01DX001 (ip), vehicle: other); 100 % of control (dose: 100.0 mg/kg/injection, schedule: Q04DX003 (ip), vehicle: Klucel (hydroxypropylcellulose) (HPC)); 100 % of control (dose: 200.0 mg/kg/injection, schedule: Q01DX001 (ip), vehicle: other); 113 % of control (dose: 200.0 mg/kg/injection, schedule: Q04DX003 (ip), vehicle: Klucel (hydroxypropylcellulose) (HPC)).

As for `COC1NC(=O)NC(=O)C1=[N+]=[N-]` (stereo not drawn), the T/C was 170 % of control (dose: 3.3 mg/kg/injection, schedule: Q01DX009 (ip), vehicle: saline with Tween-80) and 175 % of control (dose: 5.0 mg/kg/injection, schedule: Q01DX009 (ip), vehicle: saline with Tween-80).

For the molecule `Cc1cc(Sc2ccc(Cl)cc2)nc(Sc2ccc(Cl)cc2)c1C#N`, the T/C is, setting by setting: under setting [5], 94 % of control; under setting [6], 88 % of control; under setting [7], 91 % of control.

As for `CCC(CC)C(=O)NC`, the T/C by setting is: under setting [5], 104 % of control; under setting [6], 104 % of control; under setting [7], 95 % of control.

In the case of `CC(C)(C1=CC=CS1(=O)=O)C1=CC=C(C(C)(C)C2=CC=CS2(=O)=O)S1(=O)=O`, the T/C reads like this: (dose: 100.0 mg/kg/injection, schedule: Q01DX001 (ip), vehicle: saline with Tween-80) 102 % of control; (dose: 200.0 mg/kg/injection, schedule: Q01DX001 (ip), vehicle: saline with Tween-80) 94 % of control; (dose: 400.0 mg/kg/injection, schedule: Q01DX001 (ip), vehicle: saline with Tween-80) 106 % of control.

As for `Cc1ccc(C=C(C(=O)CCN(C)C)C(=O)CCN(C)C)cc1`, the T/C (dose: 50.0 mg/kg/injection, schedule: Q01DX005 (ip), vehicle: saline) was 87 % of control; the T/C (dose: 100.0 mg/kg/injection, schedule: Q01DX005 (ip), vehicle: saline) was 109 % of control; the T/C (dose: 200.0 mg/kg/injection, schedule: Q01DX005 (ip), vehicle: saline) is 119 % of control.

`Cc1ccc(S)c(S)c1`: the T/C was 97 % of control (dose: 3.12 mg/kg/injection, schedule: Q01DX009 (ip), vehicle: saline); 103 % of control (dose: 6.25 mg/kg/injection, schedule: Q01DX009 (ip), vehicle: saline); 103 % of control (dose: 12.5 mg/kg/injection, schedule: Q01DX009 (ip), vehicle: saline); 112 % of control (dose: 25.0 mg/kg/injection, schedule: Q01DX009 (ip), vehicle: saline).

In the case of `O=C(/C=C/c1ccc([N+](=O)[O-])cc1)c1ccc(Cl)cc1`, the T/C under setting [2] is 90 % of control; the T/C under setting [8] is 95 % of control; the T/C under setting [3] is 90 % of control; the T/C under setting [9] was 90 % of control; the T/C (dose: 400.0 mg/kg/injection, schedule: Q01DX009 (ip), vehicle: saline with Tween-80) was 100 % of control; the T/C (dose: 400.0 mg/kg/injection, schedule: Q04DX003 (ip), vehicle: saline with Tween-80) is 100 % of control.

For `CCCN1c2ccccc2Sc2ccccc21`, the T/C is 100 % of control (dose: 25.0 mg/kg/injection, schedule: Q04DX003 (ip), vehicle: saline with Tween-80); 90 % of control (dose: 50.0 mg/kg/injection, schedule: Q04DX003 (ip), vehicle: saline with Tween-80); 90 % of control under setting [8]; 90 % of control under setting [9].

Take `O=S(=O)(O)c1c(Cl)c(Cl)c(Cl)c(Cl)c1Cl`: the T/C is, setting by setting: (dose: 50.0 mg/kg/injection, schedule: Q04DX003 (ip), vehicle: suspension in saline) 115 % of control; (dose: 100.0 mg/kg/injection, schedule: Q04DX003 (ip), vehicle: suspension in saline) 116 % of control; (dose: 200.0 mg/kg/injection, schedule: Q04DX003 (ip), vehicle: suspension in saline) 114 % of control.

With `CNC(=O)NC1C(O)C(CO)OC(OC)C1O` (stereo not drawn), the T/C was 118 % of control (dose: 100.0 mg/kg/injection, schedule: Q01DX001 (ip), vehicle: saline); 100 % of control (dose: 200.0 mg/kg/injection, schedule: Q01DX001 (ip), vehicle: saline); 104 % of control (dose: 400.0 mg/kg/injection, schedule: Q01DX001 (ip), vehicle: saline).

Turning to `CCNC(=S)N/N=C/c1ccc[nH]1`, the T/C by setting is: (dose: 15.0 mg/kg/injection, schedule: Q01DX009 (ip), vehicle: saline with Tween-80) 104 % of control; (dose: 30.0 mg/kg/injection, schedule: Q01DX009 (ip), vehicle: saline with Tween-80) 88 % of control; (dose: 60.0 mg/kg/injection, schedule: Q01DX009 (ip), vehicle: saline with Tween-80) 101 % of control.
